# Data: PMC12993615 (The journal of pain, 2024)
# How the values were obtained:
# [1] = Oral bioavailability / pharmacokinetics in rats; type: in vivo; conditions: Sprague Dawley, rat, plasma, male rats
# Procedure: Following intravenous and oral administration, blood samples (ca .2 mL) were collected from the jugular vein. For IV group, blood samples were collected at .083, .25, .5, 1, 2, 4, 6, 8, 24 hours post-dose. For PO group, blood samples were collected at .25, .5, 1, 2, 4, 6, 8, 24 hours post-dose. Blood samples were collected into tubes containing the anticoagulant K2EDTA. Plasma samples were prepared by centrifugation and dispensed into 1.5 mL matrix tubes and stored in a freezer (−75 ± 1°C) prior to analysis.
# cathepsin G = biological target: T1, cathepsin G (Homo sapiens, UniProt P08311); experiment: Secondary pharmacology panel (87 targets); type: binding; conditions: test concentration 30 µM
# T1 sequence (P08311 21-255): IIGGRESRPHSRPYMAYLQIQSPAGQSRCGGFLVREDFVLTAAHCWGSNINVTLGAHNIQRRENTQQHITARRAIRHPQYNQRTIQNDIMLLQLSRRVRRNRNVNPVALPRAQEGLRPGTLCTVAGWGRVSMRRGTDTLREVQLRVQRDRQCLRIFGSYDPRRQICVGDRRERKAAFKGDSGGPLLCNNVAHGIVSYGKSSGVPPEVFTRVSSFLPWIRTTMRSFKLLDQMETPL
# Description: Findings were considered significant if ≥50% inhibition of ligand binding or ≥50% stimulation/inhibition were shown in biochemical assays. Those receptors with values ≥50% were further evaluated for binding and functional half-maximal inhibitory concentrations (IC50).
# [2] = test system: oxaliplatin-induced mechanical allodynia; experiment: Acute dosing in established OIPN, von-Frey paw withdrawal threshold; type: in vivo, male Sprague Dawley rats; conditions: for PWT response versus vehicle: 2 hours
# Procedure: OXA (Tocris Bioscience) was dissolved in 5% dextrose (Sigma-Aldrich) and administered intraperitoneally (IP) at a volume of 6 mL/kg. […] AM251 (CB1 antagonist; Tocris Bioscience), AM630 (CB2 antagonist; Tocris Bioscience), GW6471 (PPARα antagonist; Tocris Bioscience), and AMG9810 (TRPV1 antagonist; Tocris Bioscience) were dissolved in saline with 4% dimethyl sulfoxide and delivered IP. Male Sprague Dawley rats (150–210 g) were housed in groups of 4 in intra-ventilated Perspex home cages. Humidity, temperature (21 ± 1 °C), and lighting (light-dark cycle of 12:12 hours) were controlled and maintained in the home cages, with food and water available ad libitum. Rats acclimatised to the home cages for at least 1 week. All experiments were carried out according to the Animals (Scientific Procedures) Act, 1986 (U.K. Government Home Office). The study was performed under the Home Office project licence number PP0847012. OIPN was established with a single dose of OXA (10 mg/kg, IP). […] Tactile allodynia (primary outcome measure) was assessed using paw withdrawal threshold (PWT), a measure of pain sensitivity. PWT was evaluated using calibrated von-Frey monofilaments (Touch-Test Sensory Evaluator; Scientific Marketing Associates) applied to the plantar surface of the left hind paw. PWT was determined by increasing and decreasing stimulus intensity and estimated using Dixon’s up-down method.[38],[39] To acquire baseline readings, pain behaviour was assessed on 3 consecutive days (Days −3, −2, −1). The mean of Day −2 and Day −1 was considered the healthy baseline (HBL) prior to OIPN induction. On Days 5 and 6 after OXA injection, thresholds were reassessed. The mean of Days 5 and 6 was considered the neuropathic baseline (NPB). Animals were then ranked and randomised (based on a Latin square design) to treatment groups according to the percentage change of the mean thresholds observed in the NPB compared to the HBL. NPB expressed as a percentage change from HBL was calculated as follows (HBL-NPB)/HBL*100. All behavioural assessment was done by an experimenter blinded to the identity of the treatment. Separate people were responsible for dosing and assessment/data analysis.
# [3] = test system: oxaliplatin-induced thermal hyperalgesia; experiment: 7-day treatment of established OIPN, cold plate latency; type: in vivo, male Sprague Dawley rats; conditions: 7 days dosing, vehicle close to HBL by Day 14
# Procedure: Male Sprague Dawley rats (150–210 g) were housed in groups of 4 in intra-ventilated Perspex home cages. Humidity, temperature (21 ± 1 °C), and lighting (light-dark cycle of 12:12 hours) were controlled and maintained in the home cages, with food and water available ad libitum. Rats acclimatised to the home cages for at least 1 week. All experiments were carried out according to the Animals (Scientific Procedures) Act, 1986 (U.K. Government Home Office). The study was performed under the Home Office project licence number PP0847012. OIPN was established with a single dose of OXA (10 mg/kg, IP). […] Body weight was monitored throughout the study, and terminal plasma and whole brain samples were taken for bioanalysis. Thermal hyperalgesia was assessed using a cold plate (Bioseb, France) set at a fixed temperature of 15 °C. Latency to the first escape behaviour from the plate was measured indicating discomfort to the thermal stimulation. Escape behaviours typically consist of paw licking, jumping, or withdrawal. The maximal threshold of latency was set at 150 seconds. To acquire baseline readings, pain behaviour was assessed on 3 consecutive days (Days −3, −2, −1). The mean of Day −2 and Day −1 was considered the healthy baseline (HBL) prior to OIPN induction. […] NPB expressed as a percentage change from HBL was calculated as follows (HBL-NPB)/HBL*100. […]
compound,measurement,setting,value
"COc1ccccc1[C@@H]1[C@H](C(=O)O)[C@@H](c2ccccc2OC)[C@H]1C(=O)OC1Cc2ccccc2C1 [ART26.12, (+)–3-Indan-2-yloxycarbonyl-2,4-bis(2-methoxyphenyl)cyclobutanecarboxylic acid]",clearance,[1]; IV 2 mg/kg,14 mL/min/kg
same,half-life,[1]; IV 2 mg/kg,2.6 h
same,Vd,"[1]; IV 2 mg/kg, read-out: volume of distribution",1.3 L/kg
same,Tmax,[1]; PO 10 mg/kg,~0.5 h
same,Tmax,[1]; PO 300 mg/kg,~6.6 h
same,bioavailability,[1]; PO 300 mg/kg,163%
same,half-life,[1]; PO 300 mg/kg,3.8 h
same,bioavailability,[1]; single oral dose 10 mg/kg,73%
same,binding to cathepsin G in secondary pharmacology screening,cathepsin G,greater than 50%
same,PWT response versus vehicle,[2]; 100 mg/kg PO co-administered with AM630 (CB2 antagonist) 3 mg/kg IP,not significantly different to vehicle
same,PWT response versus vehicle,[2]; 100 mg/kg PO co-administered with AMG9810 (TRPV1 antagonist) 3 mg/kg IP,not significantly different to vehicle
same,PWT response versus vehicle,[2]; 100 mg/kg PO co-administered with GW6471 (PPARα antagonist) 4 mg/kg IP,not significantly different to vehicle
same,PWT compared to ART26.12 alone,"[2]; 100 mg/kg PO co-treated with AM251 (CB1 antagonist) 3 mg/kg IP, P < .05",significantly reduced PWT
same,duration of acute attenuation of mechanical allodynia,"[2]; established OIPN, acute oral dosing",up to 8 hours
same,PWT compared to vehicle,"[2]; established OIPN, 50 mg/kg (P < .05), 75 mg/kg (P < .05), 100 mg/kg (P < .001) PO, 30 minutes and 2 hours post-dose",significantly increased PWT
same,PWT time course after single dose,"[2]; established OIPN, 100 mg/kg PO, at 30 minutes, 2, 3, 4 and 8 hours",significantly increased
same,PWT compared to vehicle-alone,"[2]; mechanism study, 100 mg/kg PO, 30 minutes or 2 hours, P < .01",significantly increased PWT
same,cold plate latency,[3],no effect on cold plate latency
